Test results published in patent publication US11053204B2, “Pyrimidinyloxy benzene derivatives as herbicides” (FMC Corporation, priority 2015, dated 2021).

Key:
Type in all cases: in vivo
kochia (Kochia scoparia) [1] = assay: Test A postemergence, visual injury rating; conditions: 0 is no effect, 100 is complete control; for Kochia plant response rating: 0 to 100 scale, approximately 10 days
Method in brief: (§1)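 Pre- and postemergence greenhouse screen. Soil: loam + sand. Spray carrier: solvent mixture, non-phytotoxic, with surfactant. Post timing at 1–2 leaves, height 2–10 cm. Readout: visual injury on a 0–100 scale roughly 10 days after application, untreated plants as reference.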

[2] = tested on: blackgrass (Alopecurus myosuroides); assay: Test A postemergence, visual injury rating; conditions: 0 is no effect, 100 is complete control; for Blackgrass plant response rating: 0 to 100 scale, approximately 10 days
Method in brief: as §1

[3] = tested on: giant foxtail (Setaria faberii); assay: Test A postemergence, visual injury rating; conditions: 0 is no effect, 100 is complete control; for Foxtail, Giant plant response rating: 0 to 100 scale, approximately 10 days
Method in brief: as §1

corn (Zea mays) = assay: Test A postemergence, visual injury rating; conditions: 0 is no effect, 100 is complete control; for Corn plant response rating: 0 to 100 scale, approximately 10 days
Method in brief: as §1

[4] = tested on: barnyardgrass (Echinochloa crus-galli); assay: Test A postemergence, visual injury rating; conditions: 0 is no effect, 100 is complete control; for Barnyardgrass plant response rating: 0 to 100 scale, approximately 10 days
Method in brief: as §1

[5] = tested on: pigweed (Amaranthus retroflexus); assay: Test A postemergence, visual injury rating; conditions: 0 is no effect, 100 is complete control; for Pigweed plant response rating: 0 to 100 scale, approximately 10 days
Method in brief: as §1

[6] = tested on: galium (catchweed bedstraw, Galium aparine); assay: Test A postemergence, visual injury rating; conditions: 0 is no effect, 100 is complete control; for Galium plant response rating: 0 to 100 scale, approximately 10 days
Method in brief: as §1

[7] = tested on: ragweed (common ragweed, Ambrosia elatior); assay: Test A postemergence, visual injury rating; conditions: 0 is no effect, 100 is complete control; for Ragweed plant response rating: 0 to 100 scale, approximately 10 days
Method in brief: as §1

[8] = tested on: wheat (Triticum aestivum); assay: Test A postemergence, visual injury rating; conditions: 0 is no effect, 100 is complete control; for Wheat plant response rating: 0 to 100 scale, approximately 10 days
Method in brief: as §1

[9] = tested on: Italian ryegrass (Lolium multiflorum); assay: Test A postemergence, visual injury rating; conditions: 0 is no effect, 100 is complete control; for Ryegrass, Italian plant response rating: 0 to 100 scale, approximately 10 days
Method in brief: as §1

[10] = tested on: sedge, umbrella (small-flower umbrella sedge, Cyperus difformis); assay: Test B flooded paddy test, plant response rating; conditions: 250 g ai/ha; Flood; scale of 0 to 100 where 0 is no effect and 100 is complete control; 13 to 15 days
Method in brief: (§2)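 Test compounds are applied straight into paddy water held 3 cm above the soil surface, with that flood maintained for the whole test. After 13 to 15 days in the greenhouse, each species is scored visually relative to controls.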

[11] = tested on: ducksalad (Heteranthera limosa); assay: Test B flooded paddy test, plant response rating; conditions: 250 g ai/ha; Flood; scale of 0 to 100 where 0 is no effect and 100 is complete control; 13 to 15 days
Method in brief: as §2

[12] = tested on: barnyardgrass (Echinochloa crus-galli); assay: Test B flooded paddy test, plant response rating; conditions: 250 g ai/ha; Flood; scale of 0 to 100 where 0 is no effect and 100 is complete control; 13 to 15 days
Method in brief: as §2

rice (Oryza sativa) = assay: Test B flooded paddy test, plant response rating; conditions: 250 g ai/ha; Flood; scale of 0 to 100 where 0 is no effect and 100 is complete control; 13 to 15 days
Method in brief: as §2

kochia (Kochia scoparia) [13] = assay: Test A preemergence, visual injury rating
Method in brief: as §1

[14] = tested on: giant foxtail (Setaria faberii); assay: Test A preemergence, visual injury rating
Method in brief: as §1

[15] = tested on: barnyardgrass (Echinochloa crus-galli); assay: Test A preemergence, visual injury rating; conditions: for Barnyardgrass plant response rating: 0 to 100 scale (0 no effect, 100 complete control); for Plant response rating, Barnyardgrass: 31 g ai/ha, 0 to 100 scale, 0 no effect, 100 complete control
Method in brief: as §1

[16] = tested on: pigweed (Amaranthus retroflexus); assay: Test A preemergence, visual injury rating
Method in brief: as §1

[17] = tested on: ragweed (common ragweed, Ambrosia elatior); assay: Test A preemergence, visual injury rating
Method in brief: as §1

[18] = tested on: Italian ryegrass (Lolium multiflorum); assay: Test A preemergence, visual injury rating
Method in brief: as §1

[19] = 125 g ai/ha, 0 to 100 scale (0 no effect, 100 complete control)
[20] = 500 g ai/ha, 0 to 100 scale (0 no effect, 100 complete control)
[21] = 31 g ai/ha, 0 to 100 scale, 0 no effect, 100 complete control

CN(OCC(F)(F)F)C(=O)c1c(Br)cccc1Oc1ncc(Br)cn1 [Compound 24]
Kochia plant response rating (0 to 100 scale) (kochia (Kochia scoparia) [1]; 125 g ai/ha): 0
Kochia plant response rating (0 to 100 scale) (kochia (Kochia scoparia) [1]; 500 g ai/ha): 0
Blackgrass plant response rating (0 to 100 scale) ([2]; 125 g ai/ha): 0
Blackgrass plant response rating (0 to 100 scale) ([2]; 500 g ai/ha): 0
Foxtail, Giant plant response rating (0 to 100 scale) ([3]; 125 g ai/ha): 0
Foxtail, Giant plant response rating (0 to 100 scale) ([3]; 500 g ai/ha): 0
Corn plant response rating (0 to 100 scale) (corn (Zea mays); 125 g ai/ha): 0
Corn plant response rating (0 to 100 scale) (corn (Zea mays); 500 g ai/ha): 0
Barnyardgrass plant response rating (0 to 100 scale) ([4]; 125 g ai/ha): 0
Barnyardgrass plant response rating (0 to 100 scale) ([4]; 500 g ai/ha): 10
Pigweed plant response rating (0 to 100 scale) ([5]; 125 g ai/ha): 0
Pigweed plant response rating (0 to 100 scale) ([5]; 500 g ai/ha): 10
Galium plant response rating (0 to 100 scale) ([6]; 125 g ai/ha): 10
Galium plant response rating (0 to 100 scale) ([6]; 500 g ai/ha): 20
Ragweed plant response rating (0 to 100 scale) ([7]; 125 g ai/ha): 0
Ragweed plant response rating (0 to 100 scale) ([7]; 500 g ai/ha): 0
Wheat plant response rating (0 to 100 scale) ([8]; 125 g ai/ha): 0
Wheat plant response rating (0 to 100 scale) ([8]; 500 g ai/ha): 0
Ryegrass, Italian plant response rating (0 to 100 scale) ([9]; 125 g ai/ha): 0
Ryegrass, Italian plant response rating (0 to 100 scale) ([9]; 500 g ai/ha): 0
Plant response rating, Sedge, Umbrella [10]: 0
Plant response rating, Ducksalad [11]: 0
Plant response rating, Barnyardgrass [12]: 0
Plant response rating, Rice (rice (Oryza sativa)): 0
Kochia plant response rating (kochia (Kochia scoparia) [13]; [19]): 0
Kochia plant response rating (kochia (Kochia scoparia) [13]; [20]): 0
Foxtail, Giant plant response rating [14, 19]: 0
Foxtail, Giant plant response rating [14, 20]: 20
Barnyardgrass plant response rating ([15]; 125 g ai/ha): 0
Barnyardgrass plant response rating ([15]; 500 g ai/ha): 30
Pigweed plant response rating [16, 19]: 0
Pigweed plant response rating [16, 20]: 90
Ragweed plant response rating [17, 19]: 0
Ragweed plant response rating [17, 20]: 0
Ryegrass, Italian plant response rating [18, 19]: 0
Ryegrass, Italian plant response rating [18, 20]: 0

C=C(C)COC(=O)c1c(Br)cccc1Oc1ncc(Cl)cn1 [Compound 3]
Kochia plant response rating (kochia (Kochia scoparia) [1]; 31 g ai/ha): 0
Kochia plant response rating (0 to 100 scale) (kochia (Kochia scoparia) [1]; 125 g ai/ha): 40
Blackgrass plant response rating ([2]; 31 g ai/ha): 0
Blackgrass plant response rating (0 to 100 scale) ([2]; 125 g ai/ha): 30
Foxtail, Giant plant response rating ([3]; 31 g ai/ha): 30
Foxtail, Giant plant response rating (0 to 100 scale) ([3]; 125 g ai/ha): 80
Corn plant response rating (corn (Zea mays); 31 g ai/ha): 0
Corn plant response rating (0 to 100 scale) (corn (Zea mays); 125 g ai/ha): 30
Barnyardgrass plant response rating ([4]; 31 g ai/ha): 20
Barnyardgrass plant response rating (0 to 100 scale) ([4]; 125 g ai/ha): 60
Pigweed plant response rating ([5]; 31 g ai/ha): 70
Pigweed plant response rating (0 to 100 scale) ([5]; 125 g ai/ha): 100
Galium plant response rating ([6]; 31 g ai/ha): 40
Galium plant response rating (0 to 100 scale) ([6]; 125 g ai/ha): 70
Ragweed plant response rating ([7]; 31 g ai/ha): 0
Ragweed plant response rating (0 to 100 scale) ([7]; 125 g ai/ha): 0
Wheat plant response rating ([8]; 31 g ai/ha): 0
Wheat plant response rating (0 to 100 scale) ([8]; 125 g ai/ha): 0
Ryegrass, Italian plant response rating ([9]; 31 g ai/ha): 0
Ryegrass, Italian plant response rating (0 to 100 scale) ([9]; 125 g ai/ha): 30
Plant response rating, Sedge, Umbrella [10]: 100
Plant response rating, Ducksalad [11]: 30
Plant response rating, Barnyardgrass [12]: 0
Plant response rating, Rice (rice (Oryza sativa)): 0
Plant response rating, Kochia (kochia (Kochia scoparia) [13]; [21]): 0
Kochia plant response rating (kochia (Kochia scoparia) [13]; [19]): 40
Plant response rating, Foxtail, Giant [14, 21]: 70
Foxtail, Giant plant response rating [14, 19]: 100
Plant response rating, Barnyardgrass [15]: 60
Barnyardgrass plant response rating ([15]; 125 g ai/ha): 80
Plant response rating, Pigweed [16, 21]: 50
Pigweed plant response rating [16, 19]: 100
Plant response rating, Ragweed [17, 21]: 0
Ragweed plant response rating [17, 19]: 0
Plant response rating, Ryegrass, Italian [18, 21]: 0
Ryegrass, Italian plant response rating [18, 19]: 30

C#CCOC(=O)c1c(Br)cccc1Oc1ncc(Cl)cn1 [Compound 108]
Kochia plant response rating (kochia (Kochia scoparia) [1]; 31 g ai/ha): 20
Kochia plant response rating (kochia (Kochia scoparia) [1]; 125 g ai/ha): 40
Blackgrass plant response rating ([2]; 31 g ai/ha): 0
Blackgrass plant response rating ([2]; 125 g ai/ha): 0
Foxtail, Giant plant response rating ([3]; 31 g ai/ha): 0
Foxtail, Giant plant response rating ([3]; 125 g ai/ha): 10
Corn plant response rating (corn (Zea mays); 31 g ai/ha): 10
Corn plant response rating (corn (Zea mays); 125 g ai/ha): 20
Barnyardgrass plant response rating ([4]; 31 g ai/ha): 0
Barnyardgrass plant response rating ([4]; 125 g ai/ha): 10
Pigweed plant response rating ([5]; 31 g ai/ha): 20
Pigweed plant response rating ([5]; 125 g ai/ha): 50
Galium plant response rating ([6]; 31 g ai/ha): 20
Galium plant response rating ([6]; 125 g ai/ha): 40
Ragweed plant response rating ([7]; 31 g ai/ha): 0
Ragweed plant response rating ([7]; 125 g ai/ha): 0
Wheat plant response rating ([8]; 31 g ai/ha): 0
Wheat plant response rating ([8]; 125 g ai/ha): 0
Ryegrass, Italian plant response rating ([9]; 31 g ai/ha): 0
Ryegrass, Italian plant response rating ([9]; 125 g ai/ha): 0
Plant response rating, Sedge, Umbrella [10]: 60
Plant response rating, Ducksalad [11]: 80
Plant response rating, Barnyardgrass [12]: 0
Plant response rating, Rice (rice (Oryza sativa)): 0
Plant response rating, Kochia (kochia (Kochia scoparia) [13]; [21]): 0
Plant response rating, Kochia (kochia (Kochia scoparia) [13]; [19]): 10
Plant response rating, Foxtail, Giant [14, 21]: 10
Plant response rating, Foxtail, Giant [14, 19]: 80
Plant response rating, Barnyardgrass [15]: 10
Barnyardgrass plant response rating ([15]; 125 g ai/ha): 30
Plant response rating, Pigweed [16, 21]: 0
Plant response rating, Pigweed [16, 19]: 70
Plant response rating, Ragweed [17, 21]: 0
Plant response rating, Ragweed [17, 19]: 0
Plant response rating, Ryegrass, Italian [18, 21]: 0
Plant response rating, Ryegrass, Italian [18, 19]: 0
